Earlier results, collected in US9238083B2, “Molecular probe for imaging of pancreatic islets and use of the same” (Kyoto University, priority 2009, dated 2016).

Columns and labels:
pancreatic islet cells = details: cited from earlier work
[1] = test system: GLP-1R-positive tumor cells; details: cited from earlier work

Question: Which results are given for Lys^40(Ahx-DTPA-^111In)Exendin-4(9-39)?
Answer: uptake in pancreatic islets (pancreatic islet cells): about 0.4%; affinity with respect to GLP-1R (pancreatic islet cells; conclusion from the uptake results): low affinity; uptake in the GLP-1R-positive tumor cells [1]: about 7.5%
